Literature values in patent publication US20220362410A1, “PREFERRED ANTERIOR CAPSULOTOMY LOCATION PROVIDED BY TRYPAN BLUE OPTHALMIC SOLUTION” (Excel-Lens, Inc., priority 2018, published 2022).

System: cell toxicity
Details: concentrations above the range 0.2 to 0.45%

## Cc1cc(-c2ccc(/N=N/c3c(S(=O)(=O)O)cc4cc(S(=O)(=O)O)cc(N)c4c3O)c(C)c2)ccc1/N=N/c1c(S(=O)(=O)O)cc2cc(S(=O)(=O)O)cc(N)c2c1O [Trypan Blue]
  cell toxicity: cell toxicity was noted
